# Data reported in patent US11109593B2, “Isoxazolin-5-one derivative and herbicide containing same as active ingredient” (HOKKO CHEMICAL INDUSTRY CO., LTD., priority 2017, dated 2021).
# System: Echinochloa crus-galli
# Experiment: Test Example 1: herbicidal effect test by treatment of rice paddy soil (immediately after seeding)
# Assay type: in vivo
# Settings: 120 g/10a active ingredient, 14 days after treatment, dry weight vs untreated area
# Summary of the method: (§1)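 Paddy soil in pots with compound fertilizer, puddled; 30 seeds per species sown at 0–1 cm, flooded ~3 cm, greenhouse. Water-diluted emulsions dropped onto water immediately after seeding at 120 g active ingredient per 10 ares, duplicate. Herbicidal rate (%) from plant dry weight versus untreated, 14 days after treatment.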
row,Structure (SMILES),Herbicidal rate (%) Echinochloa crus-galli [%]
1,Cc1ccc(S(=O)(=O)N(c2ccccc2Cc2c(C)n(C(C)C)oc2=O)S(=O)(=O)C(F)(F)F)cc1 [Compound 1-1127],100

# Same assay, conditions: 120 g/10a active ingredient, dry weight vs untreated area, 14 days after treatment
row,Structure (SMILES),Herbicidal rate (%) Echinochloa crus-galli [%]
1,Cc1c(Cc2ccccc2N(C(=O)C2CC2)S(=O)(=O)C(F)(F)F)c(=O)on1C(C)(C)C [Compound 1-403],90

# System: Scirpus juncoides
# Experiment: as above
# Assay type: in vivo
# Settings: 120 g/10a active ingredient, 14 days after treatment, dry weight vs untreated area
# Summary of the method: as §1
row,Structure (SMILES),Herbicidal rate (%) Scirpus juncoides [%]
1,Cc1ccc(S(=O)(=O)N(c2ccccc2Cc2c(C)n(C(C)C)oc2=O)S(=O)(=O)C(F)(F)F)cc1 [Compound 1-1127],90

# Same assay, conditions: 120 g/10a active ingredient, dry weight vs untreated area, 14 days after treatment
row,Structure (SMILES),Herbicidal rate (%) Scirpus juncoides [%]
1,Cc1c(Cc2ccccc2N(C(=O)C2CC2)S(=O)(=O)C(F)(F)F)c(=O)on1C(C)(C)C [Compound 1-403],90

# System: broad leaf weeds (Lindernia pyxidaria and Monochoria vaginalis)
# Experiment: as above
# Assay type: in vivo
# Settings: Lindernia pyxidaria, 120 g/10a active ingredient, 14 days after treatment, dry weight vs untreated area
# Summary of the method: as §1
row,Structure (SMILES),Herbicidal rate (%) Lindernia pyxidaria [%]
1,Cc1ccc(S(=O)(=O)N(c2ccccc2Cc2c(C)n(C(C)C)oc2=O)S(=O)(=O)C(F)(F)F)cc1 [Compound 1-1127],100

# Same assay, conditions: Lindernia pyxidaria, 120 g/10a active ingredient, dry weight vs untreated area, 14 days after treatment
row,Structure (SMILES),Herbicidal rate (%) Lindernia pyxidaria [%]
1,Cc1c(Cc2ccccc2N(C(=O)C2CC2)S(=O)(=O)C(F)(F)F)c(=O)on1C(C)(C)C [Compound 1-403],90

# Same assay, conditions: Monochoria vaginalis, 120 g/10a active ingredient, 14 days after treatment, dry weight vs untreated area
row,Structure (SMILES),Herbicidal rate (%) Monochoria vaginalis [%]
1,Cc1ccc(S(=O)(=O)N(c2ccccc2Cc2c(C)n(C(C)C)oc2=O)S(=O)(=O)C(F)(F)F)cc1 [Compound 1-1127],100

# Same assay, conditions: Monochoria vaginalis, 120 g/10a active ingredient, dry weight vs untreated area, 14 days after treatment
row,Structure (SMILES),Herbicidal rate (%) Monochoria vaginalis [%]
1,Cc1c(Cc2ccccc2N(C(=O)C2CC2)S(=O)(=O)C(F)(F)F)c(=O)on1C(C)(C)C [Compound 1-403],90

# System: Echinochloa crus-galli
# Experiment: Test Example 2: herbicidal effect test by treatment during growing period in paddy rice cultivation (seven days after seeding)
# Assay type: in vivo
# Settings: 120 g/10a active ingredient, assessed 14 days after treatment, dry weight vs untreated area
# Summary of the method: (§2)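 Seeds sown 0–1 cm deep in puddled, fertilised paddy soil with about 3 cm standing water in a glass greenhouse. Diluted emulsion dropped into the water seven days after seeding at 120 g active ingredient per 10 ares. Herbicidal rate (%) from mean dry weight vs untreated, duplicate, 14 days after treatment.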
row,Structure (SMILES),Herbicidal rate (%) Echinochloa crus-galli [%]
1,Cc1c(Cc2ccccc2N(C(=O)C2CC2)S(=O)(=O)C(F)(F)F)c(=O)on1C(C)(C)C [Compound 1-403],90

# Same assay, conditions: 120 g/10a, rated 14 days after treatment, paddy soil pots
row,Structure (SMILES),"herbicidal rate, Echinochloa crus-galli [%]"
1,Cc1ccc(S(=O)(=O)N(c2ccccc2Cc2c(C)n(C(C)C)oc2=O)S(=O)(=O)C(F)(F)F)cc1 [Compound 1-1127],100

# System: Scirpus juncoides
# Experiment: as above
# Assay type: in vivo
# Settings: 120 g/10a active ingredient, assessed 14 days after treatment, dry weight vs untreated area
# Summary of the method: as §2
row,Structure (SMILES),Herbicidal rate (%) Scirpus juncoides [%]
1,Cc1c(Cc2ccccc2N(C(=O)C2CC2)S(=O)(=O)C(F)(F)F)c(=O)on1C(C)(C)C [Compound 1-403],90

# Same assay, conditions: 120 g/10a, rated 14 days after treatment, paddy soil pots
row,Structure (SMILES),"herbicidal rate, Scirpus juncoides [%]"
1,Cc1ccc(S(=O)(=O)N(c2ccccc2Cc2c(C)n(C(C)C)oc2=O)S(=O)(=O)C(F)(F)F)cc1 [Compound 1-1127],90

# System: broad leaf weeds (Lindernia pyxidaria and Monochoria vaginalis)
# Experiment: as above
# Assay type: in vivo
# Settings: Lindernia pyxidaria, 120 g/10a active ingredient, assessed 14 days after treatment, dry weight vs untreated area
# Summary of the method: as §2
row,Structure (SMILES),Herbicidal rate (%) Lindernia pyxidaria [%]
1,Cc1c(Cc2ccccc2N(C(=O)C2CC2)S(=O)(=O)C(F)(F)F)c(=O)on1C(C)(C)C [Compound 1-403],90

# Same assay, conditions: Lindernia pyxidaria, 120 g/10a, rated 14 days after treatment, paddy soil pots
row,Structure (SMILES),"herbicidal rate, Lindernia pyxidaria [%]"
1,Cc1ccc(S(=O)(=O)N(c2ccccc2Cc2c(C)n(C(C)C)oc2=O)S(=O)(=O)C(F)(F)F)cc1 [Compound 1-1127],100

# Same assay, conditions: Monochoria vaginalis, 120 g/10a active ingredient, assessed 14 days after treatment, dry weight vs untreated area
row,Structure (SMILES),Herbicidal rate (%) Monochoria vaginalis [%]
1,Cc1c(Cc2ccccc2N(C(=O)C2CC2)S(=O)(=O)C(F)(F)F)c(=O)on1C(C)(C)C [Compound 1-403],90

# Same assay, conditions: Monochoria vaginalis, 120 g/10a, rated 14 days after treatment, paddy soil pots
row,Structure (SMILES),"herbicidal rate, Monochoria vaginalis [%]"
1,Cc1ccc(S(=O)(=O)N(c2ccccc2Cc2c(C)n(C(C)C)oc2=O)S(=O)(=O)C(F)(F)F)cc1 [Compound 1-1127],100

# System: Amaranthus viridis
# Experiment: Test Example 3: herbicidal effect test by treatment of dry field farming soil (one day after seeding)
# Assay type: in vivo
# Settings: 120 g/10a active ingredient, evaluated 14 days after treatment
# Summary of the method: (§3)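 Alluvial dry-field soil in pots, top 1 cm mixed with 20 seeds per weed species. One day after seeding, the water-diluted emulsion was sprayed onto the soil surface at 100 L per 10 ares (120 g active ingredient per 10 ares). Duplicate pots; herbicidal rate (%) from plant dry weight versus untreated, 14 days after treatment.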
row,Structure (SMILES),"herbicidal rate, Amaranthus viridis [%]"
1,Cc1c(Cc2ccccc2N(C(=O)C2CC2)S(=O)(=O)C(F)(F)F)c(=O)on1C(C)(C)C [Compound 1-403],90
2,Cc1ccc(S(=O)(=O)N(c2ccccc2Cc2c(C)n(C(C)C)oc2=O)S(=O)(=O)C(F)(F)F)cc1 [Compound 1-1127],40

# System: Chenopodium album
# Experiment: as above
# Assay type: in vivo
# Settings: 120 g/10a active ingredient, evaluated 14 days after treatment
# Summary of the method: as §3
row,Structure (SMILES),"herbicidal rate, Chenopodium album [%]"
1,Cc1c(Cc2ccccc2N(C(=O)C2CC2)S(=O)(=O)C(F)(F)F)c(=O)on1C(C)(C)C [Compound 1-403],90
2,Cc1ccc(S(=O)(=O)N(c2ccccc2Cc2c(C)n(C(C)C)oc2=O)S(=O)(=O)C(F)(F)F)cc1 [Compound 1-1127],60

# System: Echinochloa crus-galli
# Experiment: as above
# Assay type: in vivo
# Settings: 120 g/10a active ingredient, evaluated 14 days after treatment
# Summary of the method: as §3
row,Structure (SMILES),"herbicidal rate, Echinochloa crus-galli [%]"
1,Cc1c(Cc2ccccc2N(C(=O)C2CC2)S(=O)(=O)C(F)(F)F)c(=O)on1C(C)(C)C [Compound 1-403],90
2,Cc1ccc(S(=O)(=O)N(c2ccccc2Cc2c(C)n(C(C)C)oc2=O)S(=O)(=O)C(F)(F)F)cc1 [Compound 1-1127],90

# System: southern crabgrass
# Experiment: as above
# Assay type: in vivo
# Settings: 120 g/10a active ingredient, evaluated 14 days after treatment
# Summary of the method: as §3
row,Structure (SMILES),"herbicidal rate, southern crabgrass [%]"
1,Cc1c(Cc2ccccc2N(C(=O)C2CC2)S(=O)(=O)C(F)(F)F)c(=O)on1C(C)(C)C [Compound 1-403],90
2,Cc1ccc(S(=O)(=O)N(c2ccccc2Cc2c(C)n(C(C)C)oc2=O)S(=O)(=O)C(F)(F)F)cc1 [Compound 1-1127],70

# System: Amaranthus viridis
# Experiment: Test Example 4: herbicidal effect test by treatment of leave and stem in dry field farming (seven days after seeding)
# Assay type: in vivo
# Settings: 120 g/10a active ingredient; emulsion sprayed seven days after seeding; evaluated 14 days after treatment
# Summary of the method: (§4)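 Weeds were seeded at 20 seeds per species into the top 1 cm of alluvial upland soil in pots, then sprayed 7 days after seeding with water-diluted emulsifiable concentrate at 100 L/10 a, giving 120 g active ingredient/10 a. Duplicate pots; herbicidal rate (%) was 14 days post-treatment, from dry weight versus untreated.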
row,Structure (SMILES),"herbicidal effect (herbicidal rate), Amaranthus viridis [%]"
1,Cc1c(Cc2ccccc2N(C(=O)C2CC2)S(=O)(=O)C(F)(F)F)c(=O)on1C(C)(C)C [Compound 1-403],40
2,Cc1ccc(S(=O)(=O)N(c2ccccc2Cc2c(C)n(C(C)C)oc2=O)S(=O)(=O)C(F)(F)F)cc1 [Compound 1-1127],40

# System: Chenopodium album
# Experiment: as above
# Assay type: in vivo
# Settings: 120 g/10a active ingredient; emulsion sprayed seven days after seeding; evaluated 14 days after treatment
# Summary of the method: as §4
row,Structure (SMILES),"herbicidal effect (herbicidal rate), Chenopodium album [%]"
1,Cc1c(Cc2ccccc2N(C(=O)C2CC2)S(=O)(=O)C(F)(F)F)c(=O)on1C(C)(C)C [Compound 1-403],40
2,Cc1ccc(S(=O)(=O)N(c2ccccc2Cc2c(C)n(C(C)C)oc2=O)S(=O)(=O)C(F)(F)F)cc1 [Compound 1-1127],40

# System: Echinochloa crus-galli
# Experiment: as above
# Assay type: in vivo
# Settings: 120 g/10a active ingredient; emulsion sprayed seven days after seeding; evaluated 14 days after treatment
# Summary of the method: as §4
row,Structure (SMILES),"herbicidal effect (herbicidal rate), Echinochloa crus-galli [%]"
1,Cc1c(Cc2ccccc2N(C(=O)C2CC2)S(=O)(=O)C(F)(F)F)c(=O)on1C(C)(C)C [Compound 1-403],90
2,Cc1ccc(S(=O)(=O)N(c2ccccc2Cc2c(C)n(C(C)C)oc2=O)S(=O)(=O)C(F)(F)F)cc1 [Compound 1-1127],90

# System: southern crabgrass
# Experiment: as above
# Assay type: in vivo
# Settings: 120 g/10a active ingredient; emulsion sprayed seven days after seeding; evaluated 14 days after treatment
# Summary of the method: as §4
row,Structure (SMILES),"herbicidal effect (herbicidal rate), southern crabgrass [%]"
1,Cc1c(Cc2ccccc2N(C(=O)C2CC2)S(=O)(=O)C(F)(F)F)c(=O)on1C(C)(C)C [Compound 1-403],90
2,Cc1ccc(S(=O)(=O)N(c2ccccc2Cc2c(C)n(C(C)C)oc2=O)S(=O)(=O)C(F)(F)F)cc1 [Compound 1-1127],40
